Reference: patent US20260273004A1, “AGENT AND METHOD FOR MAINTAINING OR IMPROVING CEREBRAL FUNCTION USING CRUDE DRUG” (CEREBRO PHARMA INC., priority 2023, published 2026)

Key:
[1] = test system: mouse models of AD and PD; conditions: oral administration, Non-Patent Literature 18, 19; cited from earlier work
[2] = test system: BDNF and nerve growth factor (NGF); conditions: oral administration; rat model of cerebral ischemia/reperfusion; Non-Patent Literature 20; cited from earlier work
Tau784 mice = assay: Morris water maze test in Tau784 mice; type: in vivo, mouse; conditions: Tau784 mice aged 8-10 months; orally, one month; mixture of catechin 0.087 μg, chlorogenic acid 0.036 μg, rutin 0.123 μg, or catechin alone 0.087 μg; FIG. 24
From the text: The Tau784 mice are FTD models that express both three-repeat and four-repeat human tau at an adult age (with four-repeat human tau being dominantly expressed) due to the presence of a tau intron mutation (Non-Patent Literature 25: Umeda et al., Am. J. Pathol., (2013), 183[1]:211-25; and Non-Patent Literature 26: Umeda et al., Ann. Clin. Transl. Neurol., (2015), 2[3]:241-55).
To investigate the effect of mãmaki leaf hot water extract, the extract powder was suspended in water at concentrations of 3.33, 0.33, and 0.10 mg/mL by sonication. 300 μL of each suspension (containing 1,000, 100, and 30 μg of powder) was orally administered to male and female Tau784 mice five days a week (Monday to Friday) for one month. As a control, the same amount of water was administered to age-matched Tg and non-Tg littermates. For APP23, Huα-Syn (A53T), and C9-500 mice, a 0.33 mg/mL suspension (100 μg of powder/[…]) was orally administered to male and female mice for one month. […]
The spatial reference memory of each mouse was evaluated using the Morris water maze test (Non-Patent Literature 34: Kelley Bromley-Brits et al., J. Vis. Exp., (2011), 53e2920). […] Each mouse was placed in the pool and allowed to swim for 60 seconds, and the time taken to reach the platform was measured (referred to as escape latency). […]

O=C(/C=C/c1ccc(O)c(O)c1)O[C@@H]1C[C@](O)(C(=O)O)C[C@@H](O)[C@H]1O [Chlorogenic acid, 5-O-caffeoylquinic acid]
memory and motor function [1]: improves their memory and motor function | expression of BDNF and nerve growth factor (NGF) [2]: promote the expression of BDNF and nerve growth factor (NGF)

catechin
memory (Morris water maze test) (Tau784 mice): showed a weaker effect than the polyphenol mixture
